Results published in patent US11246873B2, “Directed differentiation of oligodendrocyte precursor cells to a myelinating cell fate” (The Scripps Research Institute, priority 2011, dated 2022).
Entries after “also recorded” stand apart in the source; their conditions may differ. Where two headings read alike, the source gives them in different places.

Assays:
OPCs [1] = assay: qRT-PCR of MBP and MOG expression in compound treated OPCs; type: cell-based, rat; details: EC90 concentrations, 6 days
Excerpt: FIG. 2A-C. […] (A) Western blot analysis of OPCs treated with compounds at EC90 concentrations for 6 days. Total protein was isolated from cell pellets and probed for myelin basic protein (MBP) and myelin oligodendrocyte glycoprotein (MOG) using specific antibodies. (B-C) Quantitative RT-PCR (qRT-PCR) analysis of OPCs treated with compounds at EC90 concentrations for 6 days. Total RNA was isolated from cell pellets and reverse transcribed. MBP and MOG expression was quantified using specific probes and Taqman-based qRT-PCR. Expression was normalized to the internal controls β-actin and GAPDH. Fold change in gene expression over DMSO treated control cells is plotted for MBP (B) and MOG (C).

OPCs [2] = assay: Western blot of MBP and MOG in compound treated OPCs; type: cell-based, rat; details: OPCs treated 6 days
Excerpt: FIG. 2A-C. Neurotransmitter receptor modulating agents induce the differentiation of OPCs to a myelinating oligodendrocyte cell fate. (A) Western blot analysis of OPCs treated with compounds at EC90 concentrations for 6 days. Total protein was isolated from cell pellets and probed for myelin basic protein (MBP) and myelin oligodendrocyte glycoprotein (MOG) using specific antibodies. (B-C) Quantitative RT-PCR (qRT-PCR) analysis of OPCs treated with compounds at EC90 concentrations for 6 days. Total RNA was isolated from cell pellets and reverse transcribed. MBP and MOG expression was quantified using specific probes and Taqman-based qRT-PCR. Expression was normalized to the internal controls β-actin and GAPDH. Fold change in gene expression over DMSO treated control cells is plotted for MBP (B) and MOG (C).
FIG. 13. […] After 6 days in culture, cells were analyzed for MBP and MOG expression by Western blot.

OPCs [3] = assay: Immunofluorescence analysis of mature oligodendrocyte markers (MBP, MOG, CNP, GalC, O1, O4); type: cell-based, rat; details: OPCs treated 6 days
Excerpt: FIG. 3. Immunofluorescence analysis of compound treated OPCs using mature oligodendrocyte specific markers. Immunofluorescence staining using specific antibodies for MBP, MOG, and 2′,3′-cyclic nucleotide 3′ phosphodiesterase (CNP). Nuclei were identified using DAPI.
FIG. 4. Immunofluorescence analysis of compound treated OPCs using mature oligodendrocyte specific markers. Immunofluorescence staining using specific antibodies for galactocereberoside (GalC), oligodendrocyte marker O1 (O1) and oligodendrocyte marker O4 (O4). Nuclei were identified using DAPI.
FIG. 14. Compound treatment induces the differentiation of OPCs to mature oligodendrocytes. […] Cells were fixed and immunostained for MBP, MOG, CNP, GalC, O1, or O4.
Immunofluorescence was also used to confirm that the hits were able to induce oligodendrocyte maturation.

PLP induced EAE mice = details: for clinical severity versus vehicle, prophylactic mode: 10 mg/kg i.p. daily from the day of PLP injection; for dose dependence of clinical EAE scores: various doses i.p. (FTY720 1, 0.1, 0.01 mg/kg; interferon-β 10,000, 3000, 1000 U per mouse)
Method: (A-E) SJL mice were immunized with proteolipid peptide (PLP) and pertussis toxin and monitored daily with scoring on the standard clinical EAE scale (0-5). Compounds were administered daily for the duration of the study in saline at 10 mg/kg via intra-peritoneal injection (0.1 ml), starting on the day of the appearance of clinical EAE symptoms (day 10). […] Mean clinical EAE score and standard error of mean (SEM) are shown for each study group.
FIG. 25. […] EAE was induced in mice using PLP and pertussis toxin. […] Prophylactic dosing is defined as administration of compound commenced on the day of PLP injection. Error bars indicate standard deviation of the mean within each group of 8 mice.
(A-F) EAE was induced in mice using PLP and pertussis toxin. […] Error bars indicate standard deviation of the mean within each group of 8 mice.
(A-F) EAE was induced in mice by injecting PLP in complete Freund's adjuvant (CFA) and pertussis toxin, and the animals were scored daily for clinical severity of disease on a scale of 0-5. […] Error bars indicate standard deviation of the mean within each group of 8-10 mice.
10 week old SJL mice were immunized with PLP emulsion and pertusis toxin to induce EAE. […] Compounds were administered daily via intraperitoneal injection of 100 ul in sterile saline at 10 mg/kg alone or in combination with mycophenolate motefil in sterile saline at pH 5 at 20 mg/kg. Compound administration was initiated at disease onset (day 10) while mycophenolate motefil administration was initiated on Day 14. The mice were scored daily on a standard EAE scale of 0-5.
This model is most commonly used to evaluate the potential efficacy of immunomodulatory agents, but can also be used to determine the effectiveness of promyelinating agents that function by enhancing OPC differentiation (M. Fernandez et al., Proc Natl Acad Sci U.S.A, 101, 16363 (2004); X. Lee et al., J Neurosci, 27, 220 (2007); reviewed in R. J. Franklin, C. Ffrench-Constant, Nat Rev Neurosci, 9, 839 (2008)). […] We next evaluated efficacy when the drug is dosed therapeutically, by starting daily injections at the first sign of disease onset.
For the treatment of MS, an OPC differentiation inducing drug would most likely be introduced clinically as part of a combination therapy with an immunosuppressive drug. […] The former reduces T-cell proliferation and alters cytokine expression (A. Noronha, A. Toscas, M. A. Jensen, J Neuroimmunol, 46, 145 (1993); A. Noronha, A. Toscas, M. A. Jensen, Ann Neurol, 27, 207 (1990)), while the latter is an S1P agonist that regulates T-cell trafficking (V. Brinkmann et al., J Biol Chem, 277, 21453 (2002); V. Brinkmann et al., Nat Rev Drug Discov, 9, 883 (2010)).

OPCs [4] = assay: qRT-PCR of cell cycle genes in OPCs; type: cell-based, rat; details: benztropine 1.5 uM
Excerpt: OPCs express mAChRs, predominantly subtypes M1, M3, and M5 (F. Ragheb et al., J Neurochem, 77, 1396 (2001)). […] Activation of M1 and M3 mAChRs is coupled to downstream signal transduction events through phospholipase C, which results in increased intracellular calcium concentrations (F. Ragheb et al., J Neurochem, 77, 1396 (2001)) (FIG. 23C). M2 and M4 mAChR activation inhibits adenylatecyclase, leading to decreased intracellular cAMP levels (C. C. Felder, FASEB J, 9, 619 (1995); M. Lopez-Ilasaca et al., Science, 275, 394 (1997)). […] Acetylcholine is a known regulator of OPC proliferation and, as such, muscarinic receptor subtypes represent a reasonable class of therapeutic targets for the modulation of OPC proliferation and differentiation (F. De Angelis et al., Dev Neurobiol, (2011)).

caspase 3 = assay: Western blot of caspase 3 and cleaved caspase 3 in differentiated OPCs; details: benztropine 1.5 uM, thyroid hormone 1 uM, 6 days
Excerpt: FIG. 32. Western blot analysis of cleaved caspase activity in differentiated OPCs. […] Total protein was isolated and analyzed by Western blot using a specific antibody for the expression of caspase 3 and cleaved caspase 3.

Compound | induction of MBP expression (qRT-PCR) over DMSO (OPCs [1]) | induction of MOG expression (qRT-PCR) over DMSO (OPCs [1]) | MBP and MOG expression (Western blot) (OPCs [2]) | MBP and MOG expression (Western blot) (OPCs [2]; listed as Benztropine) | markers of mature myelinating oligodendrocytes (MBP, MOG, CNP, GalC, O1, O4) by immunofluorescence (OPCs [3]) | effect on clinical severity scores at 0.1 mg/kg (PLP induced EAE mice; 0.1 mg/kg) | clinical severity versus vehicle, prophylactic mode (PLP induced EAE mice) | clinical severity versus vehicle, prophylactic mode (PLP induced EAE mice; listed as Benztropine) | mean maximal clinical EAE score in relapse, day 25 (PLP induced EAE mice; SJL mice, scale 0-5, compounds 10 mg/kg i.p. daily from day 10, mycophenolate mofetil 20 mg/kg from day 14, mean ± SEM) | most effective dose in decreasing clinical severity scores (PLP induced EAE mice; dose response in EAE model) | general toxicity (PLP induced EAE mice; mouse, in vivo, 10 mg/kg) | dose dependence of clinical EAE scores (PLP induced EAE mice) | dose dependence of clinical EAE scores (PLP induced EAE mice; listed as Benztropine) | transcript levels of cyclin D1, cyclin D2, c-Fos, c-Jun (OPCs [4]) | expression of cleaved caspase 3 (caspase 3) | recovery time following the acute phase (PLP induced EAE mice; 10 mg/kg i.p. daily from day 10) | mean maximal clinical EAE score in relapse, day 26 (PLP induced EAE mice; SJL mice, scale 0-5, 10 mg/kg i.p. daily from day 10, mean ± SEM)
CN1[C@@H]2CC[C@H]1C[C@@H](OC(c1ccccc1)c1ccccc1)C2 [benztropine] | two-fold | two-fold | positive | induces differentiation of OPCs to mature oligodendrocytes | confirmed the presence of multiple markers of mature myelinating oligodendrocytes; also recorded: expression of mature oligodendrocyte markers | no effect | significantly decreased clinical severity in both acute and relapse phase | dramatically decreased the severity of the acute phase of disease and virtually eliminated the observation of a relapse phase; also recorded: decreased the clinical severity of disease | 0.2±0.2 | 12.5 mg/kg | general toxicity was not observed | Dose dependent activity | dose dependent efficacy | significantly decreased; also recorded: downregulation in cell cycle genes such as Cyclin D1, Cyclin D2, c-Fos, c-Jun | No expression of cleaved caspase 3 was detected |  | 
CN1CCN(CCCN2c3ccccc3Sc3ccc(C(F)(F)F)cc32)CC1 [trifluoperazine] | two-fold | two-fold |  |  | confirmed the presence of multiple markers of mature myelinating oligodendrocytes |  |  |  |  |  |  |  |  |  |  | modest decrease | 0.4±0.4
